Counter-ions that a name gives are not always drawn. Where no end group is shown, it is not given here.
How the values were obtained:
[1] = target: recombinant human neutral endopeptidase (NEP, EC 3.4.24.11) (Homo sapiens (Human), UniProt P08473); test: In vitro inhibition of recombinant human neutral endopeptidase (fluorescence lifetime assay); assay type: biochemical; details: 1 hour pre-incubation, effect determined after 1 hour at room temperature, pH 7.4
Source text: The activity of a compound for use in the method according to the present invention can be assessed by the following in vitro & in vivo methods and/or by the following in vitro & in vivo methods well-described in the art. See A fluorescence lifetime-based assay for protease inhibitor profiling on human kallikrein 7 Doering K, Meder G, Hinnenberger M, Woelcke J, Mayr L M, Hassiepen U Biomol Screen.
In particular, the in vitro inhibition of recombinant human neutral endopeptidase (NEP, EC 3.4.24.11) can be determined as follows: […]

[2] = tested on: adult male cannulated Sprague-Dawley rats; test: Renal function assessment in rats: GFR by FITC-inulin clearance method; details: relative to vehicle-treated rats
Protocol: A fluorescein isothiocyanate (FITC)-inulin stock solution was prepared by weighing the FITC-inulin powder, adding it to saline (50 mg/ml), and heating it in boiling water until dissolved. The solution was filtered and dialyzed overnight to remove unbound FITC. The next day, the dialysate was again filtered to sterilize it.
Approximately 1-2 weeks before the study, femoral arterial and venous catheters were implanted in the rats under isoflurane anesthesia. The catheters were exteriorized through a spring tether/swivel system and the instrumented rats were housed in specialized cages.
On the experimental day, rats were administered a NEP inhibitor or its vehicle by oral gavage. Thirty min later, FITC-inulin (10 mg/kg i.v. bolus) was administered via the venous catheter. Blood samples were withdrawn from the arterial catheter at 3, 7, 10, 15, 30, 60, 90, and 120 min after the FITC-inulin injection for plasma FITC-inulin and compound concentrations.
Arterial pressure was continuously monitored throughout the experiment.
The stock solution of FITC-inulin was serially diluted to generate a standard curve. The dosing solution was also diluted and analyzed to determine the exact amount of FITC-inulin injected. […] Concentrations of FITC-inulin in the plasma and dosing solution were determined by linear regression from the standard curve. FITC-inulin AUC(O-infinity) was derived by WinNonlin for each rat's plasma concentration-time curves. GFR (FITC-inulin clearance) was calculated for each animal as the injected dose divided by the AUC.

[3] = tested on: patients with chronic renal insufficiency undergoing cardiac catheterization; details: 48 hour infusion at 0.042 μg/kg/min, at-risk patients undergoing cardiac catheterization; cited from earlier work

recombinant human neutral endopeptidase (NEP, EC 3.4.24.11), sequence (P08473 whole entry): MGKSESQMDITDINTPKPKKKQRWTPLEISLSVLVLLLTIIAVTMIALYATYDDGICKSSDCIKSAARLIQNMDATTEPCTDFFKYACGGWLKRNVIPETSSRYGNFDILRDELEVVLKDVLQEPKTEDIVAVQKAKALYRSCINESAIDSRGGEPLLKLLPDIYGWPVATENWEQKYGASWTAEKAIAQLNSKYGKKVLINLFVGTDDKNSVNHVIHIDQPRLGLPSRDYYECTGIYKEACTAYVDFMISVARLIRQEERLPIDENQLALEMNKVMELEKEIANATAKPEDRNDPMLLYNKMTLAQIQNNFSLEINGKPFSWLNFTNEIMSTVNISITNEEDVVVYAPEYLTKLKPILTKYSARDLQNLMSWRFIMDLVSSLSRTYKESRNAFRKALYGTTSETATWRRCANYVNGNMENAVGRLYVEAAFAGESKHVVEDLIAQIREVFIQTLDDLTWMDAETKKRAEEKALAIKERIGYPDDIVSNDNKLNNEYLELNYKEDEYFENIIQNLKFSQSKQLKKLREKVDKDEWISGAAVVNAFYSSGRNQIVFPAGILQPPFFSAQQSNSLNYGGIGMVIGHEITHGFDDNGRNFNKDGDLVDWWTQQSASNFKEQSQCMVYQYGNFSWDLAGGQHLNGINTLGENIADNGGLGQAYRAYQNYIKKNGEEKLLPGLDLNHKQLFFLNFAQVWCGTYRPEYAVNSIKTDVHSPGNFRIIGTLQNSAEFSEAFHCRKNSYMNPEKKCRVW

| Compound | IC50 [1] [µM] | % GFR increase ([2]; dose 1 mg/kg p.o.) [%] | also measured |
| --- | --- | --- | --- |
| CCCCOC(=O)CCC(=O)N[C@@H](CC(=O)O)Cc1ccc(-c2cccc(Cl)c2)cc1 [Example 3-12, (R)-3-(4-butoxy-4-oxobutanamido)-4-(3′-chlorobiphenyl-4-yl)butanoic acid] | 0.015 | 32 |  |
| C[C@H](N[C@@H](Cc1ccc(-c2cccc(Cl)c2)cc1)C(=O)Nc1cc(O)no1)C(=O)O [Example 32-4, (S)-2-[(S)-2-(3′-Chloro-biphenyl-4-yl)-1-(3-hydroxy-isoxazol-5-ylcarbamoyl)-ethylamino]-propionic acid] | 0.0024 |  |  |
| CCOC(=O)[C@H](C)C[C@@H](Cc1ccc(-c2cccc(Cl)c2)cc1)NC(=O)CCC(=O)O [Example 35, (2R,4S)-4-(3-carboxy-propionylamino)-5-(3′-chloro-biphenyl-4-yl)-2-methyl-pentanoic acid ethyl ester] |  | 22 |  |
| CCOC(=O)C[C@@H](Cc1ccc(-c2cccc(Cl)c2)cc1)NC(=O)CCC(=O)O [Example 1-2, (R)-4-(1-(3′-chlorobiphenyl-4-yl)-4-ethoxy-4-oxobutan-2-ylamino)-4-oxobutanoic acid] |  |  | % GFR increase ([2]; dose 0.1 mg/kg p.o.): 23% |
| Human Endogenous atrial natriuretic peptides (SLRRSSCFGGRMDRIGAQSGLGCNSFRY; ends and bridges not checked; cysteine pairing not given here; UniProt P01160 124-151, looked up) [Human ANP, "Human Endogenous atrial natriuretic peptides (ANP) infusions have been available in Japan for use in acute decompensated heart failure"; infused at 0.042 μg/kg/min] |  |  | reduction of the incidence of contrast-induced nephropathy [3]: 70% |
| CCOC(=O)C[C@@H](Cc1ccc(-c2ccccc2)cc1)NC(=O)CN1CCC[C@H]1C(=O)OCc1ccccc1 [Example 3-11, (S)-benzyl 1-(2-((R)-1-(biphenyl-4-yl)-4-ethoxy-4-oxobutan-2-ylamino)-2-oxoethyl)pyrrolidine-2-carboxylate trifluoroacetic acid salt] | 0.018 |  |  |
| CCOC(=O)[C@H](C)N[C@@H](Cc1ccc(-c2cccc(Cl)c2)cc1)C(=O)Nc1nnn[nH]1 [Example 31, (S)-2-[(S)-2-(3′-chloro-biphenyl-4-yl)-1-(1H-tetrazol-5-ylcarbamoyl)-ethylamino]-propionic acid ethyl ester] |  |  | % GFR increase ([2]; dose 0.1 mg/kg p.o.): 27% |
| CCc1ncc(C(=O)N[C@@H](CC(=O)O)Cc2ccc(-c3cc(Cl)ccc3F)cc2)o1 [Example 9-7] |  | 35 |  |
| CCOC(=O)[C@H](C)C[C@@H](Cc1ccc(-c2ccccc2)cc1)NC(=O)CCC(=O)O [Example 34, (2R,4S)-5-Biphenyl-4-yl-4-(3-carboxy-propionylamino)-2-methyl-pentanoic acid ethyl ester] |  |  | % GFR increase ([2]; dose 100 mg/kg p.o.): 37% |

From patent US8993631B2, “Method of treating contrast-induced nephropathy” (Novartis AG, priority 2010, dated 2015)
